Like-named read-outs stand apart in the source and are kept apart here.
Experiments:
[1] = test system: Escherichia coli (strain ATCC 25922); experiment: Initial screening: growth inhibition after white light illumination; type: cell-based; conditions: Escherichia coli, 5 min incubation, read-out: Growth inhibition (%)
Experimental: (§1) The toxic effects of exemplary compounds of the invention against two bacterial strains, the Gram negative bacterium Escherichia coli (strain ATCC 25922) and the Gram positive bacterium Staphylococcus aureus (methicillin-resistant strain ATTC BAA-44), were evaluated by measuring the extent of growth inhibition (bacteriostatic effect) and growth […] (cytocidal effect) in the dark and upon light exposure. Initial compound screening was undertaken using white light [390-740 nm] (150 mW/cm^2) for various timepoints of a concentration of 3 μM (see Table 1). Further experiments were undertaken on those compounds identified from this initial screen using a light source emitting light at a wavelength between 417-420 nm at 15.2 mW/cm^2, 13.68 J/cm^2 (Waldmann Eclairage SA, France) (see Table 20.
(§2) The following protocol was used for the initial screening of the exemplary compounds (Table 1) (see Reddi et al., 2002, Photochem. Photobiol. 75(5):462-470): • (i) E. coli and S. aureus cells were grown overnight on brain heart infusion agar, resuspended in brain heart infusion broth, harvested by centrifugation (3000 g for 15 minutes) and washed once with phosphate buffered saline (PBS) at pH 7.4 consisting 2.7 mM KCl and 0.14 M NaCl. • (ii) The cells were then resuspended in PBS to an optical density at 650 nm of 0.7, which corresponds to a density of 10^8 to 10^9 cells/ml. • (iii) Next, the cells were incubated in PBS in the dark for 5 minutes with 3.0 μM of the compound to be tested. • (iv) After dark incubation, cells were illuminated with white light (wavelength: 390 to 740 nm) (150 mW/cm^2) for up to 30 minutes. During illumination, the cells were kept at 37° C. and magnetically stirred. • (v) Finally, treated and untreated (control) cells were diluted in brain heart infusion broth and maintained at […] while the absorbance of the suspension at 650 nm was monitored at predetermined time points for determining growth curves.
(§3) The percent of growth inhibition in the treated cells was calculated by the following equation: [1−(Ax−A0)/(Ac−A0)]×100 where Ax Ac are the absorbances measured after 3 hours incubation, for the treated and control cell suspensions, respectively, and A0 represents the initial absorbance.

[2] = test system: Staphylococcus aureus (methicillin-resistant strain ATTC BAA-44); experiment: as above; type: cell-based; conditions: Staphylococcus aureus, 5 min incubation, read-out: Growth inhibition (%)
Experimental: as §1, §2, §3

[3] = test system: S. aureus ATCC BAA-44 (a methicillin resistant S. aureus); experiment: Cell survival (colony forming unit) with or without illumination; type: cell-based, Staphylococcus aureus; conditions: S. aureus
Experimental: as §1
(§4) For the further investigation of the exemplary compounds (Table 2), the following protocol was adopted: • (i) Bacteria (S. aureus BAA-44 and E. coli 25922) were grown in brain heart infusion (BHI) broth until they reached the stationary phase of growth. • (ii) The cells were harvested by centrifugation (3000 g for 15 min) with a table centrifuge, washed with 10 mM PBS at pH 7.4 containing 2.7 mM KCl and 0.14 M NaCl and suspended in PBS at an optical density of 0.7 at 650 nm corresponding to 10^8-10^9 cells/ml. • (iii) The bacteria, at the desired cell density (˜10^8 cells/ml) were incubated for 5 min in the dark with various concentrations of the exemplary compounds. • (iv) At the end of the incubation period the cells were washed three times with PBS, suspended in PBS, transferred into a 96-well microtitre plate (200 μl/well) and illuminated for 15 min with the Waldmann light source (15.2 mW/cm^2; 13.7 J/cm^2). The cells were illuminated from the bottom of the plate laying it on the glass cover of the lamp. • (v) After illumination, cell survival was determined by plating serially diluted aliquots of treated and untreated (i.e. no exemplary compound or light present) cells onto brain heart agar (BHA) and counting the number of colonies after 18-24 h incubation at 37° C.
(§5) the above colony forming unit (CFU) protocol was also used to investigate the photodynamic activity of very low concentrations of the compounds of the invention.

[4] = test system: normal human dermal fibroblasts (NHDF); experiment: Toxicity against human skin cells, MTT-assay; type: cell-based
Experimental: (§6) Test compounds were screened for toxicity against cultured human skin cells using normal human epidermal keratinocytes (NHEK) and normal human dermal fibroblasts (NHDF), purchased from CellSystems Biotechnologie GmbH, Germany.
(§7) The NHEK and NHDF cells were used between passages 3 and 10. The cells were seeded with 7.5 and/or 15×10^4 cells/well (microtitreplate) and allowed to attach overnight in an incubator (37° C., 5% CO2). […]
(§8) Phototoxicity was tested by standard MTT-assay (Mossman et al., 1983, Immunological Methods 65:55-63). MTT is an indicator of metabolically active cells. Dependent on enzyme activity in mitochondria a colour reaction can be visualised, which can be measured by ELISA reader (540 nm). The cell viability data were normalised, i.e. the OD values of cells after PDT without photosensitisers were adjusted to one. Each experiment was repeated three times.

[5] = test system: normal human epidermal keratinocytes (NHEK); experiment: Toxicity against human skin cells, MTT-assay; type: cell-based
Experimental: as §6, §7, §8

[6] = test system: bacterial cells compared to human skin cells; experiment: Selectivity for bacteria compared to human skin cells; type: cell-based
Experimental: as §4, §6
The NHEK and NHDF cells were used between passages 3 and 10. The cells were seeded with 7.5 and/or 15×10^4 cells/well (microtitreplate) and allowed to attach overnight in an incubator (37° C., 5% CO2). After incubation with different concentrations of the selected photosensitisers, the cells were illuminated for fifteen minutes (Light source 236, Waldmann; 15.2 mW/cm^2, 13.7 J/cm^2) and then incubated for 24 hours in the dark.
as §8

E. coli ATCC 25922 = experiment: Cell survival (colony forming unit) with or without illumination; type: cell-based, Escherichia coli; conditions: E. coli
Experimental: as §1, §4, §5

[7] = Chemical stability, qualitative stress tests (HPLC, LC-MS); type: physicochemical; conditions: solid, aqueous solution and PBS; 7 days each at 50° C., 70° C., 90° C.
Experimental: The following HPLC methodology was established for the analysis of the exemplary compounds of the invention.
The method involves detection by UV at a wavelength of 420 nm, which is very specific for these compounds. In order to monitor impurities not related to the porphyrin structure (and therefore not absorbing at 420 nm) UV spectra of the whole chromatograms were also recorded between 200 nm and 700 nm by DAD (diode array detector) in certain experiments.
Qualitative stress tests were undertaken on the exemplary compounds of the invention. Analysis was undertaken by HPLC & LC-MS. The compounds were stress tested in solid form, in an aqueous solution and a solution made up in phosphate-buffered saline buffer. The samples were initially incubated for 7 days at 50° C. and a sample removed for testing. The samples were then incubated for a further 7 days at 70° C., samples removed as before and the samples incubated further for 7 days at 90° C. HPLC analysis of freshly prepared solutions was undertaken and compared to the samples after 7, 14 and 21 days incubation. A visual comparison of the chromatograms was then undertaken and the content of the main products and by-products as area percentage values determined (see FIG. 11).

[8] = dark toxicity (no illumination), 1 μM
[9] = dark toxicity (no illumination), 10 μM
[10] = photodynamic activity, 0.1 μM, illumination 15 min
[11] = photodynamic activity, 1 μM, illumination 15 min
[12] = dark toxicity, 1 μM, no illumination
[13] = dark toxicity, 10 μM, no illumination
[14] = photodynamic activity (light toxicity), 0.01 μM, illumination 15 min
[15] = photodynamic activity (light toxicity), 0.1 μM, illumination 15 min
[16] = photodynamic activity (light toxicity), 1 μM, illumination 15 min

CCCCCCCCCCCc1c2nc(cc3ccc([nH]3)c(-c3cc(OCCC[N+](C)(C)C)cc(OCCC[N+](C)(C)C)c3)c3nc(cc4ccc1[nH]4)C=C3)C=C2.[Cl-].[Cl-] [Compound 6, 5-[3,5-bis-(3-Trimethylammonio-propyloxy)-phenyl]-15-undecyl-porphyrin dichloride]
inhibition at 3 µM ([1]; ATCC25922, 5 min, E. coli, illumination time 5 min): 30%
inhibition at 3 µM ([1]; ATCC25922, E. coli, illumination time 0 min): 9%
inhibition at 3 µM ([1]; ATCC25922, E. coli, illumination time 1 min): 17%
inhibition at 3 µM ([1]; ATCC25922, E. coli, illumination time 10 min): 54%
inhibition at 3 µM ([1]; ATCC25922, E. coli, illumination time 15 min): 69%
inhibition at 3 µM ([1]; ATCC25922, E. coli, illumination time 30 min): 93%
inhibition at 3 µM ([2]; BAA44, 5 min, S. aureus, illumination time 5 min): 100%
inhibition at 3 µM ([2]; BAA44, S. aureus, illumination time 0 min): 29%
inhibition at 3 µM ([2]; BAA44, S. aureus, illumination time 1 min): 100%
inhibition at 3 µM ([2]; BAA44, S. aureus, illumination time 10 min): 100%
inhibition at 3 µM ([2]; BAA44, S. aureus, illumination time 15 min): 100%
inhibition at 3 µM ([2]; BAA44, S. aureus, illumination time 30 min): 100%
Log reduction [3, 8]: 1 (<10^−1)
Log reduction [3, 9]: 2 (10^−2)
Log reduction [3, 10]: 3 (10^−3)
Log reduction [3, 11]: 6 (10^−6)

C[N+](C)(C)CCCOc1ccc(-c2c3nc(c(-c4ccc(OCCC[N+](C)(C)C)cc4)c4ccc([nH]4)c(-c4ccc(OCCC[N+](C)(C)C)cc4)c4nc(c(-c5ccc(OCCC[N+](C)(C)C)cc5)c5ccc2[nH]5)C=C4)C=C3)cc1.[Cl-].[Cl-].[Cl-].[Cl-] [Compound 1, 5,10,15,20-tetrakis-[4-(3-Trimethylammonio-propyloxy)-phenyl]-porphyrin tetrachloride, reference compound]
Log reduction [3, 9]: <1 (<10^−1)
Log reduction [3, 10]: <1 (<10^−1)
Log reduction [3, 11]: >6 (>10^−6)
Survival [4, 12]: 100%
Survival [4, 13]: 92%
Survival [4, 14]: 100%
Survival [4, 15]: 39%
Survival [4, 16]: 2%
Survival [5, 12]: 100%
Survival [5, 13]: 83%
Survival [5, 14]: 94%
Survival [5, 15]: 52%
Survival [5, 16]: 0.4%
toxicity to bacterial cells compared to human cells [6]: equal toxicity to bacterial and human cells

C[N+](C)(C)CCCOc1cccc(-c2c3nc(cc4ccc([nH]4)c(-c4cccc(OCCC[N+](C)(C)C)c4)c4nc(cc5ccc2[nH]5)C=C4)C=C3)c1.[Cl-].[Cl-] [Compound 12, 5,15-bis-[3-(3-trimethylammonio-propyloxy)-phenyl]-porphyrin dichloride]
Log reduction (E. coli ATCC 25922; [8]): <1 (<10^−1)
Log reduction (E. coli ATCC 25922; photodynamic activity, 0.5 μM, illumination 15 min): <1 (<10^−1)
Log reduction (E. coli ATCC 25922; [11]): >6 (>10^−6)
Log reduction [3, 8]: <1 (<10^−1)
Log reduction ([3]; photodynamic activity, 0.005 μM, illumination 15 min): <2 (<10^−2)
Log reduction [3, 10]: >3 (>10^−3)
Log reduction [3, 11]: >6 (>10^−6)
Survival [4, 12]: 100%
Survival [4, 13]: 95%
Survival [4, 14]: 100%
Survival [4, 15]: 85%
Survival [4, 16]: 1.0%
Survival [5, 12]: 100%
Survival [5, 13]: 92%
Survival [5, 14]: 97%
Survival [5, 15]: 75%
Survival [5, 16]: 0.5%
toxicity to bacterial cells compared to human skin cells ([6]; at a dose of 0.1 μM): preferentially toxic to bacterial cells compared to human skin cells
chemical stability under stress test [7]: good stability

Source: US8084602B2, “Porphyrin derivatives and their use in photodynamic therapy” (Destiny Pharma Limited, priority 2002, dated 2011)
